Test results: patent US20250197642A1, “PHTHALOCYANINE PIGMENT, PHTHALOCYANINE COMPOUND, COLORING COMPOSITION, METHOD FOR PRODUCING PHTHALOCYANINE PIGMENT, AND METHOD FOR PRODUCING COLORING COMPOSITION” (FUJIFILM CORPORATION, priority 2022, published 2025)

Key:
[1] = Evaluation of storage stability (viscosity increase proportion after storage); format: physicochemical; settings: aqueous coloring compositions 1 to 8 and A to C; stored 7 days at 45° C., viscosity at 25° C.
Procedure: In an environment of 45° C. by an oven, the coloring compositions 1 to 8 and the coloring compositions A to C were stored for 7 days.
A viscosity of the coloring composition before and after the storage was measured, a viscosity increase proportion (Viscosity after storage−Viscosity before storage)/Viscosity before storage×100 was determined, and the evaluation was performed based on the following evaluation standard.
The viscosity of the coloring composition was measured using a viscometer RE85L (rotor: 1°34′×R24, measurement range: 0.6 to 1200 mPa·s) manufactured by TOKI-SANGYO Co., Ltd. in a state in which the temperature was adjusted to 25° C.
• A: viscosity increase proportion was 10% or less. • B: viscosity increase proportion was more than 10%.

[2] = Evaluation of light fastness (compound residual rate after xenon light irradiation of ink jet image); format: physicochemical; settings: aqueous coloring compositions 1 to 8 and A to C; image on art paper, xenon light 85,000 lux, 100 hours
From the text: The pigment dispersion liquid 1, a polyurethane resin (HYDRAN (registered trademark) AP-40F (manufactured by DIC Corporation)), and deionized water were mixed to produce an aqueous pigment dispersion liquid 1 having a pigment content of 10% by mass and a polyurethane resin non-volatile content of 2% by mass.
The following components were mixed to obtain a coloring composition 1.
Coloring compositions 2 to 8 were obtained in the same manner as in the above-described method, except that the pigment dispersion liquid 1 was changed to each of the pigment dispersion liquids 2 to 8.
A coloring composition A was obtained in the same manner as in the above-described method, except that the pigment dispersion liquid 1 was changed to the pigment dispersion liquid A. […]
The above-described image was irradiated with xenon light (85,000 lux) for 100 hours using a weather meter (manufactured by Atlas, Ci65), and a reflection density after the irradiation with xenon light was measured using a reflection densitometer (manufactured by X-Rite, Inc., trade name: X-Rite i1Pro). […]
A compound residual rate (%) before and after the irradiation with xenon light was calculated from the following expression, and evaluated based on the following evaluation standard. […]

For C. I. Pigment Green 58 [PG58], the “Evaluation of storage stability” value [1] was “B (viscosity increase proportion was more than 10%)” and the “Evaluation of light fastness” value [2] was “A (compound residual rate was 80% or more)”.
